In US8778966B2, “Quinolinone derivatives as PARP and tank inhibitors” (Janssen Pharmaceutica, NV, priority 2007, dated 2014):

What was measured:
[1] = tested on: PC-3 cells; test: Antiproliferative activity, Alamar Blue assay, PC-3 cells; assay type: cell-based, human; details: Homo sapiens, PC-3, PC3 cells, Alamar Blue; read-out: PC3 antiproliferative activity pIC50 (converted)
Procedure, shortened: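 PC-3 cells seeded at 4.5×10^3 cells/ml, left to adhere 24 hr, then exposed to compound for 4 days. Resazurin (Alamar Blue) added for a further 24 hrs at 37° C; fluorescence read at 540/590 nm. Viability as % of untreated control, mean of 3 wells; IC50 by probit analysis, reported as pIC50.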

[2] = tested on: PC3 cells; test: EB1 Comet (microtubule disruption) assay; assay type: cell-based, human; details: Homo sapiens, PC-3, 1 h, 1 hour treatment, read-out: EB1 pLAC (converted)
Procedure, shortened: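 PC3 human prostate cancer cells exposed to compound for 1 h at 37 °C (0.6% DMSO final), methanol-fixed, immunostained for Eb1 and imaged at 20×. Value is the lowest active concentration (LAC): the concentration at which Eb1 foci are absent in at least 50% of treated cells.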

SMILES | IC50 [1] | minimal effective concentration [2]
CCc1cc2ccc(C(C)(C#N)Cc3cccc(Br)n3)cc2[nH]c1=O (stereo not drawn) [Compound 344] | 0.631 µM | 0.316 µM
CCc1cc2ccc(C(C)(C#N)Cc3ccc(OC)nc3)cc2[nH]c1=O (stereo not drawn) [Compound 352] | 2.51 µM | 1 µM
CCc1cc2ccc(C(C)(C#N)Cc3cnc(OC)nc3Cl)cc2[nH]c1=O (stereo not drawn) [Compound 356] | 0.794 µM | 0.1 µM
CCc1cc2ccc(C(C)(C#N)Cc3cnc(OC)nc3OC)cc2[nH]c1=O (stereo not drawn) [Compound 357] | 0.398 µM | 0.316 µM
CCc1cc2ccc(C(C)(C#N)Cc3nc(Cl)cc(N(C)C)n3)cc2[nH]c1=O (stereo not drawn) [Compound 359] | 0.501 µM | 0.1 µM
CCc1cc2ccc(C(C)(C#N)Cc3nccc(OC)n3)cc2[nH]c1=O (stereo not drawn) [Compound 360] | 1.26 µM | 1 µM
CCc1cc2ccc(C(C)(C#N)Cc3cc(OCCOC)nc(C)n3)cc2[nH]c1=O (stereo not drawn) [Compound 363] | 5.01 µM | 1 µM
CCc1cc2ccc(C(C)(C#N)Cc3cc(N(C)C)nc(Cl)n3)cc2[nH]c1=O (stereo not drawn) [Compound 364] | 0.794 µM | 1 µM
CCc1cc2ccc(C(C)(C#N)Cc3cc(OC)nc(C)n3)cc2[nH]c1=O (stereo not drawn) [Compound 366] | 0.631 µM | < 0.0316 µM
CCc1cc2ccc(C(C)(C#N)Cc3cc(OCCOC)nc(Cl)n3)cc2[nH]c1=O (stereo not drawn) [Compound 367] | 3.98 µM | 1 µM
CCc1cc2ccc(C(C)(C#N)Cc3nc(C)cc(C)n3)cc2[nH]c1=O (stereo not drawn) [Compound 368] | 1.26 µM | 1 µM
CCc1cc2ccc(C(C)(C#N)Cc3nccc(OCCOC)n3)cc2[nH]c1=O (stereo not drawn) [Compound 369] | 6.31 µM | 3.16 µM
CCc1cc2ccc(C(C)(C#N)Cc3nc(Cl)cc(OCCOC)n3)cc2[nH]c1=O (stereo not drawn) [Compound 370] | 2.51 µM | 1 µM
CCc1cc2ccc(C(C)(C#N)Cc3cc(Cl)nc(Cl)c3)cc2[nH]c1=O (stereo not drawn) [Compound 372] | 0.501 µM | 1 µM
CCc1cc2ccc(C(C)(C#N)CC3CCc4ccccc4O3)cc2[nH]c1=O (stereo not drawn) [Compound 399] | 0.631 µM | 0.316 µM
